Experimental data from the supplement of paper PMC10307832.

Assays:
Test in all cases: relative viability (nuclei count vs DMSO), 5 days (fraction); higher = more cells survive
ABC-1 = system: ABC-1
Procedure, shortened: (§1)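 Nuclei were stained with Hoechst during a one-step fixation (final 0.05% Triton X-100, 1% formaldehyde, 1 ug/ml Hoechst) carried out 5 days after dosing, then counted on 4× images. The cells, lung cancer lines in 1536-well plates, had been dosed by pin tool the day after seeding with one drug alone or a fixed anchor-drug dose plus five library-drug doses (not always all listed) in √10 steps. Relative viability is the nuclei count in treated wells divided by that in vehicle wells, and each value is the median of duplicate plates.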

CAL-12T = system: CAL-12T
Procedure, shortened: as §1

ChaGo-K-1 = system: ChaGo-K-1
Procedure, shortened: as §1

HCC-366 = system: HCC-366
Procedure, shortened: as §1

HCC-78 = system: HCC-78
Procedure, shortened: as §1

LC-2-ad = system: LC-2-ad
Procedure, shortened: as §1

LOU-NH91 = system: LOU-NH91
Procedure, shortened: as §1

LU99A = system: LU99A
Procedure, shortened: as §1

NCI-H1395 = system: NCI-H1395
Procedure, shortened: as §1

NCI-H1651 = system: NCI-H1651
Procedure, shortened: as §1

NCI-H1734 = system: NCI-H1734
Procedure, shortened: as §1

NCI-H1755 = details: first compound 0.08 µM
Procedure, shortened: as §1

**Q.** Which relative viability (ABC-1; first compound 0.08 µM) does the source give for `C=C1C(=O)O[C@@H](CCCCCCCC)[C@@H]1C(=O)O` [C-75] + COc1cccc2cc(-c3nc([C@H]4CC[C@H](C(=O)O)CC4)n4ncnc(N)c34)[nH]c12 [OSI-027] (partner 0.5 µM) here?
**A.** The relative viability was 0.498.

**Q.** What about the relative viability (ABC-1; first compound 0.253 µM) of the same molecule?
**A.** Its relative viability is 0.587.

**Q.** And the relative viability (ABC-1; first compound 0.8 µM)?
**A.** The relative viability was 0.479.

**Q.** What about the relative viability (ABC-1; first compound 2.53 µM) of the same molecule?
**A.** Its relative viability is 0.379.

**Q.** And the relative viability (ABC-1; first compound 8 µM)?
**A.** The relative viability was 0.35.

**Q.** What about the relative viability (CAL-12T; first compound 0.08 µM) of the same molecule?
**A.** The relative viability was 0.862.

**Q.** What about the relative viability (CAL-12T; first compound 0.253 µM) of the same molecule?
**A.** Its relative viability is 1.06.

**Q.** And the relative viability (CAL-12T; first compound 0.8 µM)?
**A.** The relative viability was 0.697.

**Q.** What about the relative viability (CAL-12T; first compound 2.53 µM) of the same molecule?
**A.** Its relative viability is 0.592.

**Q.** What about the relative viability (CAL-12T; first compound 8 µM) of the same molecule?
**A.** Its relative viability is 0.63.

**Q.** And the relative viability (ChaGo-K-1; first compound 0.08 µM)?
**A.** Its relative viability is 0.605.

**Q.** And the relative viability (ChaGo-K-1; first compound 0.253 µM)?
**A.** Its relative viability is 0.545.

**Q.** What about the relative viability (ChaGo-K-1; first compound 0.8 µM) of the same molecule?
**A.** Its relative viability is 0.532.

**Q.** What about the relative viability (ChaGo-K-1; first compound 2.53 µM) of the same molecule?
**A.** The relative viability was 0.422.

**Q.** And the relative viability (ChaGo-K-1; first compound 8 µM)?
**A.** The relative viability was 0.564.

**Q.** What about the relative viability (HCC-366; first compound 0.08 µM) of the same molecule?
**A.** Its relative viability is 1.06.

**Q.** What about the relative viability (HCC-366; first compound 0.253 µM) of the same molecule?
**A.** Its relative viability is 1.31.

**Q.** And the relative viability (HCC-366; first compound 0.8 µM)?
**A.** The relative viability was 0.897.

**Q.** What about the relative viability (HCC-366; first compound 8 µM) of the same molecule?
**A.** Its relative viability is 0.834.

**Q.** And the relative viability (HCC-78; first compound 0.08 µM)?
**A.** The relative viability was 0.354.

**Q.** What about the relative viability (HCC-78; first compound 0.253 µM) of the same molecule?
**A.** Its relative viability is 0.42.

**Q.** And the relative viability (HCC-78; first compound 0.8 µM)?
**A.** The relative viability was 0.376.

**Q.** And the relative viability (HCC-78; first compound 2.53 µM)?
**A.** Its relative viability is 0.329.

**Q.** What about the relative viability (HCC-78; first compound 8 µM) of the same molecule?
**A.** Its relative viability is 0.422.

**Q.** What about the relative viability (LC-2-ad; first compound 0.08 µM) of the same molecule?
**A.** The relative viability was 0.745.

**Q.** And the relative viability (LC-2-ad; first compound 0.253 µM)?
**A.** Its relative viability is 0.799.

**Q.** What about the relative viability (LC-2-ad; first compound 0.8 µM) of the same molecule?
**A.** Its relative viability is 0.747.

**Q.** And the relative viability (LC-2-ad; first compound 2.53 µM)?
**A.** Its relative viability is 0.646.

**Q.** And the relative viability (LC-2-ad; first compound 8 µM)?
**A.** Its relative viability is 0.686.

**Q.** And the relative viability (LOU-NH91; first compound 0.08 µM)?
**A.** Its relative viability is 0.725.

**Q.** What about the relative viability (LOU-NH91; first compound 0.253 µM) of the same molecule?
**A.** The relative viability was 0.622.

**Q.** What about the relative viability (LOU-NH91; first compound 0.8 µM) of the same molecule?
**A.** The relative viability was 0.68.

**Q.** And the relative viability (LOU-NH91; first compound 2.53 µM)?
**A.** The relative viability was 0.656.

**Q.** What about the relative viability (LOU-NH91; first compound 8 µM) of the same molecule?
**A.** Its relative viability is 0.781.

**Q.** What about the relative viability (LU99A; first compound 0.08 µM) of the same molecule?
**A.** Its relative viability is 0.328.

**Q.** What about the relative viability (LU99A; first compound 0.253 µM) of the same molecule?
**A.** Its relative viability is 0.28.

**Q.** And the relative viability (LU99A; first compound 0.8 µM)?
**A.** The relative viability was 0.273.

**Q.** What about the relative viability (LU99A; first compound 2.53 µM) of the same molecule?
**A.** Its relative viability is 0.252.

**Q.** What about the relative viability (LU99A; first compound 8 µM) of the same molecule?
**A.** The relative viability was 0.325.

**Q.** And the relative viability (NCI-H1395; first compound 0.08 µM)?
**A.** Its relative viability is 0.669.

**Q.** And the relative viability (NCI-H1395; first compound 0.253 µM)?
**A.** The relative viability was 0.624.

**Q.** What about the relative viability (NCI-H1395; first compound 0.8 µM) of the same molecule?
**A.** The relative viability was 0.556.

**Q.** What about the relative viability (NCI-H1395; first compound 2.53 µM) of the same molecule?
**A.** Its relative viability is 0.667.

**Q.** And the relative viability (NCI-H1395; first compound 8 µM)?
**A.** Its relative viability is 0.649.

**Q.** And the relative viability (NCI-H1651; first compound 0.08 µM)?
**A.** The relative viability was 0.712.

**Q.** What about the relative viability (NCI-H1651; first compound 0.253 µM) of the same molecule?
**A.** The relative viability was 0.838.

**Q.** What about the relative viability (NCI-H1651; first compound 0.8 µM) of the same molecule?
**A.** Its relative viability is 0.768.

**Q.** What about the relative viability (NCI-H1651; first compound 2.53 µM) of the same molecule?
**A.** Its relative viability is 0.635.

**Q.** And the relative viability (NCI-H1651; first compound 8 µM)?
**A.** Its relative viability is 0.815.

**Q.** What about the relative viability (NCI-H1734; first compound 0.08 µM) of the same molecule?
**A.** Its relative viability is 0.593.

**Q.** And the relative viability (NCI-H1734; first compound 0.253 µM)?
**A.** The relative viability was 0.621.

**Q.** What about the relative viability (NCI-H1734; first compound 0.8 µM) of the same molecule?
**A.** The relative viability was 0.481.

**Q.** And the relative viability (NCI-H1734; first compound 2.53 µM)?
**A.** The relative viability was 0.323.

**Q.** What about the relative viability (NCI-H1734; first compound 8 µM) of the same molecule?
**A.** Its relative viability is 0.455.

**Q.** What about the relative viability (NCI-H1755) of the same molecule?
**A.** Its relative viability is 0.767.
